# Measured values as given in patent US20140044797A1, “PROSTACYCLIN AND ANALOGS THEREOF ADMINISTERED DURING SURGERY FOR PREVENTION AND TREATMENT OF CAPILLARY LEAKAGE” (Rigshospitalet, priority 2011, published 2014).
# Tests used:
# [1] = in vivo; cited from earlier work
# [2] = system: blood coagulation; test: Thrombelastography (TEG) of whole blood during Flolan infusion; type: in vivo, healthy humans; conditions: Flolan 4 ng/kg/min i.v. for 2 h; samples after 60 and 120 min infusion vs baseline; 6 healthy volunteers; kaolin
# Text: The TEG analyzer uses a small whole blood sample in a rotating cup and a pin suspended in the blood by a torsion wire, which is monitored for motion. To speed up the clot formation, a standardized amount of an activator of coagulation (e.g. Kaolin, tissue factor) may be added to the cup just before the pin is placed in the cup. The torque of the rotating cup is transmitted to the immersed pin only after fibrin and/or fibrin-platelet bonding has linked the cup and pin together. The strength and rate of these bonds affect the magnitude of the pin motion such that strong clots move the pin directly in phase with cup motion. Thus, the TEG technology documents the interaction of platelets with the protein coagulation cascade from the time of placing the blood in the analyzer until initial fibrin formation, clot rate strengthening and fibrin-platelet bonding via GPIIb/IIIa, through eventual clot lysis. The TEG R parameter reflects the initiation phase, reaction time, from start of coagulation until the first fibrin band is formed; the Angle (α) represents the increase in clot strength, clot kinetics, correlating with the thrombin generation. The maximal amplitude (MA) parameter reflects maximal clot strength i.e. the maximal elastic modus of the clot.
# Six healthy volunteers were administered Flolan (prostacyclin analog) intravenously at a dose of 4 ng/kg/min for 2 h. Blood samples for whole blood viscoelastical assay (Thrombelastography [TEG]) and whole blood platelet aggregation (Multiplate) was obtained before infusion of Flolan, after 60 min infusion of Flolan and after 120 min infusion of Flolan.
# With regard to the TEG assay this was performed as recommended by the manufacturer and 340 μl are mixed with 20 μl CaCl 0.2 M (final concentration 11.1 mM in the cup) and kaolin at 37° C. after which the haemostatic activity was recorded as shown in WO 2010/075861.
# [3] = system: platelet aggregation; test: Multiplate whole blood impedance aggregometry during Flolan infusion; type: in vivo, healthy humans; conditions: Flolan 4 ng/kg/min i.v. for 2 h; after 60 and 120 min infusion; any of the agonists investigated (ASPI, COL, TRAP, ADP); 6 volunteers
# Text: Multiplate whole blood aggregometry is a platelet function test, (Multiplate®, Dynabyte Medical, Munich, Germany). […] The increase of impedance by the attachment of platelets onto the Multiplate sensors is transformed to arbitrary aggregation units (AU) and plotted against time. The aggregation can then be measured in AUC*min (area under the curve*min) determined by the plot of units against time. Additionally, the aggregation can also be expressed in units (U) (1 unit=10 AU*min). Multiplate thereby allows analyzing the effect of compounds on platelet aggregation. […] Blood samples for whole blood viscoelastical assay (Thrombelastography [TEG]) and whole blood platelet aggregation (Multiplate) was obtained before infusion of Flolan, after 60 min infusion of Flolan and after 120 min infusion of Flolan. Whole blood impedance aggregometry was analyzed by the Multiple Platelet function Analyzer (MultiPlate® analyzer). […]
# [4] = system: thrombomodulin; test: Plasma biomarker ELISA after Flolan infusion: thrombomodulin; type: in vivo, healthy individuals; conditions: 4 ng/kg/min i.v. for 2 h; 8 healthy volunteers; plasma 0-24 h; effect continuing several hours after ceasing infusion
# Procedure: (§1) Eight healthy volunteers were administered Flolane (Prostacyclin) intravenously at a dose of 4 ng/kg/min for 2 h. Blood samples were analyzed for plasma biomarkers indicative of endothelial cell (thrombomodulin, PAI-1) and glycocalyx (syndecan-1) activation and/or damage, cellular necrosis (histone-complexed DNA fragments, HMGB1) and anticoagulation (protein C, antithrombin, TFPI) at the following time points: Before the infusion (0 h), immediately after ceasing the infusion (2 h) and then 4 h, 5 h, 6 h, 8 h and 24 h after starting the infusion.
# (§2) The concentration of the individual biomarkers in plasma was analyzed by commercially available ELISA kits according to the manufactures recommendations. Paired t-tests with p-values <0.05 were considered significant.
# [5] = system: Protein C; test: Plasma biomarker ELISA after Flolan infusion: Protein C; type: in vivo, healthy individuals; conditions: 4 ng/kg/min i.v. for 2 h; 8 healthy volunteers; in the hours after ceasing the infusion
# Procedure: as §1, §2
# [6] = system: PAI-1; test: Plasma biomarker ELISA after Flolan infusion: PAI-1; type: in vivo, healthy individuals; conditions: 4 ng/kg/min i.v. for 2 h; 8 healthy volunteers; plasma 0-24 h
# Procedure: as §1, §2
# [7] = system: antithrombin; test: Plasma biomarker ELISA after Flolan infusion: antithrombin; type: in vivo, healthy individuals; conditions: 4 ng/kg/min i.v. for 2 h; 8 healthy volunteers; plasma 0-24 h
# Procedure: as §1, §2
# [8] = system: histone-complexed DNA fragments; test: Plasma biomarker ELISA after Flolan infusion: histone-complexed DNA fragments; type: in vivo, healthy individuals; conditions: 4 ng/kg/min i.v. for 2 h; 8 healthy volunteers; plasma 0-24 h
# Procedure: as §1, §2
# [9] = system: HMGB1; test: Plasma biomarker ELISA after Flolan infusion: HMGB1; type: in vivo, healthy individuals; conditions: 4 ng/kg/min i.v. for 2 h, 8 healthy volunteers
# Procedure: as §1, §2
# [10] = system: syndecan-1; test: Plasma biomarker ELISA after Flolan infusion: syndecan-1; type: in vivo, healthy individuals; conditions: 4 ng/kg/min i.v. for 2 h; 8 healthy volunteers; plasma 0-24 h
# Procedure: as §1, §2
# [11] = system: TFPI; test: Plasma biomarker ELISA after Flolan infusion: TFPI; type: in vivo, healthy individuals; conditions: 4 ng/kg/min i.v. for 2 h; 8 healthy volunteers; plasma 0-24 h
# Procedure: as §1, §2
# [12] = epoprostenol sodium compared with iloprost; cited from earlier work
# [13] = infusion in doses below 2 ng/kg/minute; cited from earlier work
compound,measurement,setting,value
CC#CCC(C)[C@H](O)/C=C/[C@@H]1[C@H]2c3cccc(CCCC(=O)O)c3O[C@H]2C[C@H]1O (mixture of isomers) [beraprost],half time,[1],35 to 40 min
"CCCCC[C@H](O)/C=C/[C@@H]1[C@H]2C/C(=C/CCCC(=O)O)O[C@H]2C[C@H]1O [Flolan, epoprostenol sodium]",TEG Angle vs baseline,[2],No significant difference
same,TEG MA vs baseline,[2],No significant difference
same,TEG R vs baseline,[2],No significant difference
same,Multiplate values vs baseline,[3],no significant difference
same,circulating level of thrombomodulin,[4],marked decrease
same,circulating level of Protein C,[5],decreased
same,circulating level of PAI-1,[6],declined
same,circulating level of antithrombin,[7],decreased
same,cell necrosis biomarker histone-complexed DNA fragments,[8],did not influence
same,HMGB1 at 5 h,"[9]; 5 h after starting infusion, p=0.056",tendency towards a reduction
same,cell necrosis biomarker HMGB1,[9]; plasma 0-24 h,did not influence
same,glycocalyx shedding (syndecan-1),[10],did not induce or influence
same,circulating level of TFPI,[11],did not induce or influence glycocalyx shedding (syndecan-1) (FIG. 6A) or affected the circulating level of TFPI
same,half time,[1],0.5 to 3 min
same,relative potency,[12],equipotent
same,duration of hypotensive episodes,[13],1 to 2 h
same,side effects: bleeding tendency,[13],no bleeding tendency
same,side effects: hypotensive episodes,[13],a few self-limiting hypotensive episodes
CC#CCC(C)[C@H](O)/C=C/[C@@H]1[C@H]2C/C(=C/CCCC(=O)O)C[C@H]2C[C@H]1O (stereo partly shown) [iloprost],half time,[1],20 to 30 min
same,relative potency,[12],equipotent
CCCCC[C@H](O)CC[C@@H]1[C@H]2Cc3cccc(OCC(=O)O)c3C[C@H]2C[C@H]1O [treprostinil],half time,[1],less than 4 hours
